Measurements: patent US9255132B2, “Angiopoietin derived peptides” (Compugen Ltd., priority 2008, dated 2016)
Residues, ends and D or L forms follow the SMILES beside them.

target: T1, human Ang4 (Homo sapiens, UniProt Q9Y264); test: BIACORE (SPR) binding of peptides to immobilized recombinant Ang4; conditions: CM5 chip, 10-50 μM peptide
T1 construct: purchased R&D Systems 964-AN-025/CF
T1 sequence (Q9Y264 25-503): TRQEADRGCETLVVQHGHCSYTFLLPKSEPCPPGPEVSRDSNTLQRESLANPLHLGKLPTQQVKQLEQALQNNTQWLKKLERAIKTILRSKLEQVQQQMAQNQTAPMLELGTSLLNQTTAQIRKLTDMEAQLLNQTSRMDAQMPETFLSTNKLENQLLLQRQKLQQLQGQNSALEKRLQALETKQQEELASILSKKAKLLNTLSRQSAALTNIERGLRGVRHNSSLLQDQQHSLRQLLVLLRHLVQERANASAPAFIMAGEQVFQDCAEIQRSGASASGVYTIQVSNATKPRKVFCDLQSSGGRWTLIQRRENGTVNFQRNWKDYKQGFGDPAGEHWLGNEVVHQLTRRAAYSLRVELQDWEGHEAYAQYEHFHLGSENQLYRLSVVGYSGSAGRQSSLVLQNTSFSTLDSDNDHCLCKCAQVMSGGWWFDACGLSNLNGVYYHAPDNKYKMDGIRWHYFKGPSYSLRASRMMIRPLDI
From the text: The capability of CGEN-H2 [SEQ ID NO: 1], CGEN-H3 [SEQ ID NO: 2], CGEN-A8 [SEQ ID NO: 3], CGEN-H7 [SEQ ID NO: 4], CGEN-G4 [SEQ ID NO: 5], CGEN-G6 [SEQ ID NO: 6], CGEN-F9 [SEQ ID NO: 7], CGEN-F12 [SEQ ID NO: 8], CGEN-C6-30 [SEQ ID NO: 9], CGEN-All [SEQ ID NO: 10], and CGEN-G2 [SEQ ID NO: 11] to specifically bind to recombinant Ang1, Ang2, and Ang4 was investigated using the BIACORE technology, measuring protein-protein interaction and binding affinity (Wendler et al 2005, Anal Bioanal Chem, 381: 1056-1064). The technology is based on surface plasmon resonance (SPR), an optical phenomenon that enables detection of unlabeled interactants in real time. The SPR-based biosensors can be used in determination of active concentration, screening and characterization in terms of both affinity and kinetics.
Peptide-protein binding was analyzed using surface plasmon resonance. Analysis of the to interaction between CGEN-H2 [SEQ ID NO: 1], CGEN-H3 [SEQ ID NO: 2], CGEN-A8 [SEQ ID NO: 3], CGEN-H7 [SEQ ID NO: 4], CGEN-G4 [SEQ ID NO: 5], CGEN-G6 [SEQ ID NO: 6], CGEN-F9 [SEQ ID NO: 7], CGEN-F12 [SEQ ID NO: 8], CGEN-C6 [SEQ ID NO: 9], CGEN-A11 [SEQ ID NO: 10], and CGEN-G2 [SEQ ID NO: 11] peptides and recombinant human Ang1 carrier-free (R&D Systems, Cat#923-AN-025/CF, Lot#FHW1507031), human Ang2 carrier-free (R&D Systems, Cat#623-AN-025/CF, Lot#BNO0457121), and human Ang4 carrier-free (R&D Systems, Cat#964-AN-025/CF, Lot#ELM025121) was conducted using the BIAcore biosensor (Pharmacia Biosensor, Uppsala, Sweden). The recombinant Ang1, Ang2, and Ang4 were immobilized directly to a CM5 sensor chip. Solutions containing 10-50 μM of CGEN-H2 [SEQ ID NO: 1], CGEN-H3 [SEQ ID NO: 2], CGEN-A8 [SEQ ID NO: 3], CGEN-H7 [SEQ ID NO: 4], CGEN-G4 [SEQ ID NO: 5], CGEN-G6 [SEQ ID NO: 6], CGEN-F9 [SEQ ID NO: 7], CGEN-F12 [SEQ ID NO: 8], CGEN-C6 [SEQ ID NO: 9], CGEN-A11 [SEQ ID NO: 10], and CGEN-G2 [SEQ ID NO: 11] peptides were injected into the sample chamber of the BIACORE device at a rate of […] and the interaction was monitored using surface plasmon resonance.
Solutions containing different concentrations of CGEN-G6 [SEQ ID NO: 6], CGEN-F9 [SEQ ID NO: 7], CGEN-F12 [SEQ ID NO: 8], CGEN-A11 [SEQ ID NO: 10], and CGEN-G2 [SEQ ID NO: 11] peptides (as indicated in Table 2) were injected into the sample chamber of the BIACORE device at a rate of […] and the interaction was monitored using surface plasmon resonance. As a background, the solutions were also injected onto an empty flow cell with no immobilized ligand and the in binding levels achieved were subtracted. Data was analyzed using BIAevaluation software. The affinity constant of the interaction between CGEN-G6 [SEQ ID NO: 6], CGEN-F9 [SEQ ID NO: 7], CGEN-F12 [SEQ ID NO: 8], CGEN-C6 [SEQ ID NO: 9], CGEN-A11 [SEQ ID NO: 10], and CGEN-G2 [SEQ ID NO: 11] and Ang1, Ang2, or Ang4 was determined by direct kinetic analysis. The 1:1 Langmuir binding model was used to fit kinetic data.
Table 2 summarizes results of analysis of CGEN-G6 [SEQ ID NO: 6], CGEN-F9 [SEQ ID NO: 7], CGEN-F12 [SEQ ID NO: 8], CGEN-A11 [SEQ ID NO: 10], and CGEN-G2 [SEQ ID NO: 11] interaction with Ang1, Ang2, or Ang4. Kinetic measurements were done at the indicated concentration range, and they are presented as KD (M). CGEN-F12 [SEQ ID NO: 8] bound to Ang1 and Ang4 with high affinity. The specificity of this binding is not clear.

Binding to immobilized Ang4 (in words), capable of binding:
CC(=O)N[C@@H](CCC(=O)O)C(=O)N[C@H](C(=O)N[C@@H](Cc1ccccc1)C(=O)N[C@@H](CC(C)C)C(=O)N[C@@H](CO)C(=O)N[C@H](C(=O)N[C@@H](CC(N)=O)C(=O)N[C@@H](CCCCN)C(=O)N[C@@H](CC(C)C)C(=O)N[C@@H](CCC(=O)O)C(=O)N[C@@H](CC(N)=O)C(=O)N[C@@H](CCC(N)=O)C(N)=O)[C@@H](C)O)[C@@H](C)O [CGEN-A11, ETFLSTNKLENQ] (Ac-ETFLSTNKLENQ-NH2)
CC[C@H](C)[C@H](NC(=O)[C@H](C)NC(=O)[C@H](CCCNC(=N)N)NC(=O)[C@H](CCC(=O)O)NC(=O)[C@H](CC(C)C)NC(=O)[C@H](CCCCN)NC(=O)[C@H](CCCCN)NC(=O)[C@H](CC(C)C)NC(=O)[C@H](Cc1c[nH]c2ccccc12)NC(=O)[C@H](CCC(N)=O)NC(=O)[C@@H](NC(=O)[C@H](CC(N)=O)NC(=O)[C@H](CC(N)=O)NC(=O)[C@H](CCC(N)=O)NC(=O)[C@H](CC(C)C)NC(=O)[C@H](C)NC(=O)[C@H](CCC(N)=O)NC(=O)[C@H](CCC(=O)O)NC(=O)[C@H](CC(C)C)NC(=O)[C@H](CCC(N)=O)NC(=O)[C@H](CCCCN)NC(=O)[C@@H](NC(=O)[C@H](CCC(N)=O)NC(=O)[C@H](CCC(N)=O)NC(=O)[C@@H](NC(C)=O)[C@@H](C)O)C(C)C)[C@@H](C)O)C(=O)N[C@@H](CCCCN)C(=O)N[C@H](C(=O)N[C@H](C(=O)N[C@@H](CC(C)C)C(N)=O)[C@@H](C)CC)[C@@H](C)O [CGEN-G2] (Ac-TQQVKQLEQALQNNTQWLKKLERAIKTIL-NH2)
CSCC[C@H](NC(=O)[C@H](CC(C)C)NC(=O)[C@H](CC(=O)O)NC(C)=O)C(=O)N[C@@H](CCC(=O)O)C(=O)N[C@H](C(=O)N[C@H](C(=O)N[C@@H](CC(N)=O)C(=O)N[C@@H](CC(N)=O)C(=O)N[C@@H](CC(C)C)C(=O)N[C@@H](CC(C)C)C(=O)N[C@H](C(=O)N[C@@H](CCSC)C(=O)N[C@@H](CCSC)C(=O)N[C@@H](CO)C(=O)N[C@H](C(=O)N[C@@H](CO)C(=O)N[C@@H](CC(N)=O)C(=O)N[C@@H](CO)C(=O)N[C@@H](C)C(=O)N[C@@H](CCCCN)C(=O)N[C@@H](CC(=O)O)C(N)=O)[C@@H](C)O)[C@@H](C)O)C(C)C)[C@@H](C)O [CGEN-G6] (Ac-DLMETVNNLLTMMSTSNSAKD-NH2)
